From US9474758B2, “Thienopyrimidinedione derivatives as TRPA1 modulators” (Glenmark Pharmaceuticals S.A., priority 2009, dated 2016)
Like-named read-outs stand apart in the source and are kept apart here.

How the values were obtained:
[1] = biological target: T1, Human TRPA1 expressing CHO cells (Homo sapiens, UniProt O75762); test: 45Calcium uptake assay, inhibition of AITC induced calcium uptake (human); format: cell-based; conditions: for inhibition at 1 µM: read-out: Percentage inhibition at 1.0 μM; for inhibition at 10 µM: read-out: Percentage inhibition at 10.0 μM
T1 construct: expressed in transfected cells; host or cells: CHO cells (G-418 selection)
Procedure: (§1) Screening for TRPA1 Antagonist Using the ^45Calcium Uptake Assay:
(§2) The inhibition of TRPA1 receptor activation was measured as inhibition of allyl isothiocyanate (AITC) induced cellular uptake of radioactive calcium.
(§3) Test compounds were dissolved in 100% DMSO to prepare 10 mM stock and then diluted using plain medium with 0.1% BSA and 1.8 mM CaCl2 to get the desired concentration. The final concentration of DMSO in the reaction was 0.5% (v/v). […] Rat TRPA1 expressing CHO cells were grown in F-12 DMEM medium with 10% FBS, 1% penicillin-streptomycin solution, and 400 μg/ml of Zeocin. […] Cells were treated with the test compounds for 10 minutes followed by the addition of AITC at a final concentration of 30 μM (for human TRPA1) and/or 10 μM (for rat TRPA1) and 5 μCi/ml ^45Ca^+2 for 3 minutes. Cells were washed and lysed using a buffer containing 1% Triton X-100, 0.1% deoxycholate and 0.1% SDS. Radioactivity in the lysate was measured in a Packard TopCount after addition of liquid scintillant.
(§4) Concentration response curves were plotted as a % of maximal response obtained in the absence of test antagonist. IC50 values can be calculated from concentration response curve by nonlinear regression analysis using GraphPad PRISM software.

[2] = biological target: T2, Rat TRPA1 expressing CHO cells (Rattus norvegicus, UniProt Q6RI86); test: 45Calcium uptake assay, inhibition of AITC induced calcium uptake (rat); format: cell-based; conditions: for inhibition at 1 µM: read-out: Percentage inhibition at 1.0 μM; for inhibition at 10 µM: read-out: Percentage inhibition at 10.0 μM; for IC50: read-out: Rat IC50 value (Range)
T2 construct: expressed in transfected cells; host or cells: CHO cells (Zeocin selection)
Procedure: as §1, §2, §3, §4

[3] = human TRPA1 CHO cells, AITC 30 μM, compound 1.0 μM
[4] = human TRPA1 CHO cells, AITC 30 μM, compound 10.0 μM
[5] = human TRPA1 CHO cells, AITC 30 μM, read-out: Human IC50 value (Range)
[6] = rat TRPA1 CHO cells, AITC 10 μM, compound 1.0 μM
[7] = rat TRPA1 CHO cells, AITC 10 μM, compound 10.0 μM
[8] = rat TRPA1 CHO cells, AITC 10 μM

T1 sequence (O75762 whole entry): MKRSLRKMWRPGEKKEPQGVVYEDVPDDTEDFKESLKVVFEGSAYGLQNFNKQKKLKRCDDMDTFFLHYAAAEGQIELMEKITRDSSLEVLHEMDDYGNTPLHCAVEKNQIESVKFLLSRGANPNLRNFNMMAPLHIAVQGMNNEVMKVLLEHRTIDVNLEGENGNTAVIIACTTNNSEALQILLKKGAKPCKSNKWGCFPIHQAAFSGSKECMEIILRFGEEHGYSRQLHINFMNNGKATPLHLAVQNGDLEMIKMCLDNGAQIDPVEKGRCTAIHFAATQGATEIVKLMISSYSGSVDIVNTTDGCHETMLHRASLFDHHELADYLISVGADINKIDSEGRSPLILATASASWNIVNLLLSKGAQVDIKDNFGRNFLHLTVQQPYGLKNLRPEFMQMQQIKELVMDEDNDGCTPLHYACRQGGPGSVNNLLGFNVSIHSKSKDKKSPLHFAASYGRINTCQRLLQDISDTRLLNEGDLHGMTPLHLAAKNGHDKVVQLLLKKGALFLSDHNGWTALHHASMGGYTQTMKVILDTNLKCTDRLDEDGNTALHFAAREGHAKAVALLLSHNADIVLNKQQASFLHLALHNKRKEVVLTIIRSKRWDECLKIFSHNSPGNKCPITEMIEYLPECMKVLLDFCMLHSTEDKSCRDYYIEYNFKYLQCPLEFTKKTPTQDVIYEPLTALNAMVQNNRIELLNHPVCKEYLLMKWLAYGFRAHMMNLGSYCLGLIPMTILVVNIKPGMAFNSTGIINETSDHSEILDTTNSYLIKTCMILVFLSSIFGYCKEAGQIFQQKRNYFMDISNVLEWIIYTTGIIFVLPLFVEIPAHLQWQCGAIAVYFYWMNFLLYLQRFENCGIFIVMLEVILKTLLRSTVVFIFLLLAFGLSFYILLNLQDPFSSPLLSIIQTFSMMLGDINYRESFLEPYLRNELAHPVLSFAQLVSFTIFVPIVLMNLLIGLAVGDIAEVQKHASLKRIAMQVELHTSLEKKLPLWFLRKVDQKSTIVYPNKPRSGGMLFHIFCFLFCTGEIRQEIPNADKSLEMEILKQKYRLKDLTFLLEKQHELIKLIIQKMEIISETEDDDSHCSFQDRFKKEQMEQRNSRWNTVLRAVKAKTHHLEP
T2 sequence (Q6RI86 whole entry): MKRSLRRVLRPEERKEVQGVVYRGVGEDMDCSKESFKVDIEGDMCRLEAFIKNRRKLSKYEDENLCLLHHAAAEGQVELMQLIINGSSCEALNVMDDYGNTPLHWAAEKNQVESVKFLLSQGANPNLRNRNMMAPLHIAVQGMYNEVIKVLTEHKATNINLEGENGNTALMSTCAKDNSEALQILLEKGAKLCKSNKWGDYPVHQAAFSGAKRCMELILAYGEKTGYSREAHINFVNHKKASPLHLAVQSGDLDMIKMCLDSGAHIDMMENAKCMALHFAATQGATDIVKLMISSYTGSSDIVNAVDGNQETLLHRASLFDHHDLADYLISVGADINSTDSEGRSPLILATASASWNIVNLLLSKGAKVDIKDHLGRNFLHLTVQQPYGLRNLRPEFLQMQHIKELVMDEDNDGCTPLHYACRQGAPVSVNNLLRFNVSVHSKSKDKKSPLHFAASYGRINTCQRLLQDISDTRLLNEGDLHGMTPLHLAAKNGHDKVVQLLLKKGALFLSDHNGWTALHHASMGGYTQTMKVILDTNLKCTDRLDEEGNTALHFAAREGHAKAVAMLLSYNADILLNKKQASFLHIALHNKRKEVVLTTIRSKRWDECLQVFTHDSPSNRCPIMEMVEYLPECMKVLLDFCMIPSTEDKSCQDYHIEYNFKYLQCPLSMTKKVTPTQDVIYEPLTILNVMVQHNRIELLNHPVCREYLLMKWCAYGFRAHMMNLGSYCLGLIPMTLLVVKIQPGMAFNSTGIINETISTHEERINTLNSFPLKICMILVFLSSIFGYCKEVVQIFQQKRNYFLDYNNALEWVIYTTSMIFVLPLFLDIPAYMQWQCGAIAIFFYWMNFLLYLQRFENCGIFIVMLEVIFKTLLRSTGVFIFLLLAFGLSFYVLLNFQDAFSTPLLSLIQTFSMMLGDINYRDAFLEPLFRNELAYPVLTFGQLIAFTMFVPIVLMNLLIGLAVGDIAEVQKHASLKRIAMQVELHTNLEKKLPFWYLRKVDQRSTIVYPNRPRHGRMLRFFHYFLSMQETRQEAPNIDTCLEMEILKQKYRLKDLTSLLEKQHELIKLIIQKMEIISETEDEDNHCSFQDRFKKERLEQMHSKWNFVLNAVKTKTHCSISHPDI

Row | Compound | inhibition at 1 µM [1, 3] [%] | inhibition at 10 µM [1, 4] [%] | IC50 [1, 5] [µM] | inhibition at 1 µM [2, 6] [%] | inhibition at 10 µM [2, 7] [%] | IC50 [2, 8] [µM] | IC50 [1] [µM] | inhibition at 1 µM ([1]; CHO) [%] | inhibition at 10 µM ([1]; CHO) [%] | inhibition at 1 µM ([2]; CHO) [%] | inhibition at 10 µM ([2]; CHO) [%]
1 | Cn1c(=O)c2c(CC(=O)Nc3nc(C(F)(F)F)cs3)csc2n(C)c1=O [Example 1, 2-(1,3-Dimethyl-2,4-dioxo-1,2,3,4-tetrahydrothieno[2,3-d]pyrimidin-5-yl)-N-[4-(trifluoromethyl)-1,3-thiazol-2-yl]acetamide] | 13.2 | 46 |  |  |  |  |  |  |  |  | 
2 | Cn1c(=O)c2c(CC(=O)Nc3nc(-c4ccc(Cl)cc4)cs3)csc2n(C)c1=O [Example 2, N-[4-(4-Chlorophenyl)-1,3-thiazol-2-yl]-2-(1,3-dimethyl-2,4-dioxo-1,2,3,4-tetrahydrothieno[2,3-d]pyrimidin-5-yl)acetamide] | 99 | 98.8 | 0.05 to 0.5 | 91.4 | 99.3 |  |  |  |  |  | 
3 | Cn1c(=O)c2c(CC(=O)Nc3nc(-c4cccc(OC(F)(F)F)c4)cs3)csc2n(C)c1=O [Example 3, 2-(1,3-Dimethyl-2,4-dioxo-1,2,3,4-tetrahydrothieno[2,3-d]pyrimidin-5-yl)-N-{4-[3-(trifluoromethoxy)phenyl]-1,3-thiazol-2-yl}acetamide] | 89 | 98.5 | 0.05 to 0.5 | 82.4 | 99.7 |  |  |  |  |  | 
4 | CC(C)Cc1ccc(-c2csc(NC(=O)Cc3csc4c3c(=O)n(C)c(=O)n4C)n2)cc1 [Example 4, 2-(1,3-Dimethyl-2,4-dioxo-1,2,3,4-tetrahydrothieno[2,3-d]pyrimidin-5-yl)-N-[4-(4-isobutylphenyl)-1,3-thiazol-2-yl]acetamide] | 29.1 | 99.5 |  |  |  |  |  |  |  |  | 
5 | Cn1c(=O)c2c(CC(=O)Nc3nc(-c4ccc(C(F)(F)F)c(F)c4)cs3)csc2n(C)c1=O [Example 5, 2-(1,3-Dimethyl-2,4-dioxo-1,2,3,4-tetrahydrothieno[2,3-d]pyrimidin-5-yl)-N-{4-[3-fluoro-4-(trifluoromethyl)phenyl]-1,3-thiazol-2-yl}acetamide] | 95.3 | 99.9 | < 0.05 |  |  | < 0.05 |  |  |  |  | 
6 | Cn1c(=O)c2c(CC(=O)Nc3nc(-c4ccc(F)c(C(F)(F)F)c4)cs3)csc2n(C)c1=O [Example 6, 2-(1,3-Dimethyl-2,4-dioxo-1,2,3,4-tetrahydrothieno[2,3-d]pyrimidin-5-yl)-N-{4-[4-fluoro-3-(trifluoromethyl)phenyl]-1,3-thiazol-2-yl}acetamide] | 100 | 100 | < 0.05 | 99.7 | 99.9 | 0.05 to 0.5 |  |  |  |  | 
7 | Cn1c(=O)c2c(CC(=O)Nc3nc(-c4ccc(C(F)(F)F)cc4F)cs3)csc2n(C)c1=O [Example 7, 2-(1,3-Dimethyl-2,4-dioxo-1,2,3,4-tetrahydrothieno[2,3-d]pyrimidin-5-yl)-N-{4-[2-fluoro-4-(trifluoromethyl)phenyl]-1,3-thiazol-2-yl}acetamide] |  |  |  |  |  |  | < 0.05 | 80.4 | 99.8 | 26.6 | 100
8 | Cn1c(=O)c2c(CC(=O)Nc3nc(-c4cc(F)cc(C(F)(F)F)c4)cs3)csc2n(C)c1=O [Example 8, 2-(1,3-Dimethyl-2,4-dioxo-1,2,3,4-tetrahydrothieno[2,3-d]pyrimidin-5-yl)-N-{4-[3-fluoro-5-(trifluoromethyl)phenyl]-1,3-thiazol-2-yl}acetamide] | 89.8 | 99.9 | < 0.05 | 95.5 | 100 | 0.05 to 0.5 |  |  |  |  | 
9 | Cn1c(=O)c2c(CC(=O)Nc3nc(-c4cccc(C(F)(F)F)c4F)cs3)csc2n(C)c1=O [Example 9, 2-(1,3-Dimethyl-2,4-dioxo-1,2,3,4-tetrahydrothieno[2,3-d]pyrimidin-5-yl)-N-{4-[2-fluoro-3-(trifluoromethyl)phenyl]-1,3-thiazol-2-yl}acetamide] | 99.2 | 98.4 | < 0.05 | 100 | 100 | 0.05 to 0.5 |  |  |  |  | 
10 | Cn1c(=O)c2c(CC(=O)Nc3nc(-c4ccc(F)c(OC(F)(F)F)c4)cs3)csc2n(C)c1=O [Example 10, 2-(1,3-Dimethyl-2,4-dioxo-1,2,3,4-tetrahydrothieno[2,3-d]pyrimidin-5-yl)-N-{4-[4-fluoro-3-(trifluoromethoxy)phenyl]-1,3-thiazol-2-yl}acetamide] | 98.2 | 99.5 | < 0.05 | 96.1 | 100 | 0.05 to 0.5 |  |  |  |  | 

Now from value to compound, other results behind:

Row | inhibition at 1 µM [1, 3] [%] | inhibition at 10 µM [1, 4] [%] | IC50 [1, 5] [µM] | inhibition at 1 µM [2, 6] [%] | inhibition at 10 µM [2, 7] [%] | IC50 [2, 8] [µM] | Compound | IC50 [1] [µM] | inhibition at 1 µM ([1]; CHO) [%] | inhibition at 10 µM ([1]; CHO) [%] | inhibition at 1 µM ([2]; CHO) [%] | inhibition at 10 µM ([2]; CHO) [%]
11 | 98.6 | 97.1 | < 0.05 | 98.8 | 99.8 | < 0.05 | Cn1c(=O)c2c(CC(=O)Nc3nc(-c4ccc(OC(F)(F)F)c(F)c4)cs3)csc2n(C)c1=O [Example 11, 2-(1,3-Dimethyl-2,4-dioxo-1,2,3,4-tetrahydrothieno[2,3-d]pyrimidin-5-yl)-N-{4-[3-fluoro-4-(trifluoromethoxy)phenyl]-1,3-thiazol-2-yl}acetamide] |  |  |  |  | 
12 | 99.7 | 99.8 | < 0.05 | 97.8 | 100 | 0.05 to 0.5 | Cn1c(=O)c2c(CC(=O)Nc3nc(-c4ccc(Cl)c(Cl)c4)cs3)csc2n(C)c1=O [Example 12, N-[4-(3,4-Dichlorophenyl)-1,3-thiazol-2-yl]-2-(1,3-dimethyl-2,4-dioxo-1,2,3,4-tetrahydrothieno[2,3-d]pyrimidin-5-yl)acetamide] |  |  |  |  | 
13 | 60 | 96.8 |  |  |  |  | Cn1c(=O)c2c(CC(=O)Nc3nc(-c4ccc(C(F)(F)F)c(F)c4F)cs3)csc2n(C)c1=O [Example 15, N-{4-[2,3-Difluoro-4-(trifluoromethyl)phenyl]-1,3-thiazol-2-yl}-2-(1,3-dimethyl-2,4-dioxo-1,2,3,4-tetrahydrothieno[2,3-d]pyrimidin-5-yl)acetamide] |  |  |  |  | 
14 | 10 | 46.8 |  |  |  |  | Cc1sc2c(c1CC(=O)Nc1nc(-c3cccc(OC(F)(F)F)c3)c[nH]1)c(=O)n(C)c(=O)n2C [Example 28, N-[4-(3-Trifluoromethoxyphenyl)-1H-imidazol-2-yl]-2-(1,3,6-trimethyl-2,4-dioxo-1,2,3,4-tetrahydrothieno[2,3-d]pyrimidin-5-yl)acetamide] |  |  |  |  | 
15 | 91.7 | 98 | 0.05 to 0.5 |  |  |  | Cc1sc2c(c1CC(=O)Nc1nc(-c3ccc(C(F)(F)F)c(F)c3)c[nH]1)c(=O)n(C)c(=O)n2C [Example 29, N-{4-[3-Fluoro-4-(trifluoromethyl)phenyl]-1H-imidazol-2-yl}-2-(1,3,6-trimethyl-2,4-dioxo-1,2,3,4-tetrahydrothieno[2,3-d]pyrimidin-5-yl)acetamide] |  |  |  |  | 
16 | 25 | 87.9 |  |  |  |  | Cn1c(=O)c2c(CC(=O)Nc3cc(-c4ccc(Cl)cc4)no3)csc2n(C)c1=O [Example 38, N-[3-(4-Chlorophenyl)isoxazol-5-yl]-2-(1,3-dimethyl-2,4-dioxo-1,2,3,4-tetrahydrothieno[2,3-d]pyrimidin-5-yl)acetamide] |  |  |  |  | 
17 | 47.8 | 78.6 |  |  |  |  | Cn1c(=O)c2c(CC(=O)Nc3cc(-c4ccc(Br)cc4)on3)csc2n(C)c1=O [Example 39, N-[5-(4-Bromophenyl)isoxazol-3-yl]-2-(1,3-dimethyl-2,4-dioxo-1,2,3,4-tetrahydrothieno[2,3-d]pyrimidin-5-yl)acetamide] |  |  |  |  | 
18 | 99.9 | 100 | < 0.05 |  |  |  | Cn1c(=O)c2c(CC(=O)Nc3ccn(-c4ccc(Br)cc4)n3)csc2n(C)c1=O [Example 40, N-[1-(4-Bromophenyl)-1H-pyrazol-3-yl]-2-(1,3-dimethyl-2,4-dioxo-1,2,3,4-tetrahydrothieno[2,3-d]pyrimidin-5-yl)acetamide] |  |  |  |  | 
19 | 9.74 | 74.6 |  |  |  |  | Cn1c(=O)c2c(CC(=O)Nc3nnc(-c4ccc(Br)cc4)s3)csc2n(C)c1=O [Example 42, N-[5-(4-Bromophenyl)-1,3,4-thiadiazol-2-yl]-2-(1,3-dimethyl-2,4-dioxo-1,2,3,4-tetrahydrothieno[2,3-d]pyrimidin-5-yl)acetamide] |  |  |  |  | 
20 | 30.5 | 4.42 |  |  |  |  | Cn1c(=O)c2c(CC(=O)Nc3nccc(-c4ccc(Br)cc4)n3)csc2n(C)c1=O [Example 43, N-[4-(4-Bromophenyl)pyrimidin-2-yl]-2-(1,3-dimethyl-2,4-dioxo-1,2,3,4-tetrahydrothieno[2,3-d]pyrimidin-5-yl)acetamide] |  |  |  |  | 
